Data: patent US20250160330A1, “METHOD FOR CONTROLLING HARMFUL ARTHROPODS OR HARMFUL NEMATODES USING ZOANTHAMINE ANALOG” (SUMITOMO CHEMICAL COMPANY, LIMITED, priority 2022, published 2025)
Like-named read-outs stand apart in the source and are kept apart here.

Key:
[1] = test system: cotton aphids (Aphis gossypii); experiment: Test method 3: foliar spray on cucumber seedling infested with cotton aphids; settings: read-out: mortality of insects
[2] = test system: cotton worm (Spodoptera litura); experiment: Test method 2: foliar spray on cabbage seedling, cotton worm larvae; type: in vivo; settings: 144 h, read-out: mortality of insects
Procedure: (§1) Test compounds are made to a formulation according to a similar method to that described in the Formulation Example 5, and thereto is added water containing 0.03 v/v % of Shindain (registered trademark) to prepare a diluted solution containing a prescribed concentration of the test compound.
(§2) Cabbage (Brassicae oleracea) seedling (on the developmental stage of the third to fourth true leaf) is planted in a cup, and the diluted solutions are sprayed into the seedling at a ratio of 20 mL/seedling. Thereafter, ten (10) cotton worm (Spodoptera litura) at the third instar larval stage are released. After 6 days, the number of the surviving insects is counted, and the mortality of insects is calculated by the following equation.

[3] = test system: cotton worm (Spodoptera litura); experiment: Test method 1: foliar spray on cabbage seedling, cotton worm larvae; type: in vivo; settings: 144 h, read-out: mortality of insects
Procedure: The test compounds are made to a formulation according to a similar method to that described in the Formulation Example 5, and thereto is added water containing 0.03 v/v % of Shindain (registered trademark) to prepare a diluted solution containing a prescribed concentration of the test compound.
as §2

[4] = test system: western flower thrips (Frankliniella occidentalis); experiment: Test method 5: sprayed cucumber leaf, western flower thrips larvae; type: in vivo; settings: 144 h, read-out: mortality of insects
Procedure: as §1
Cucumber (Cucumber sativus) seedling (on the developmental stage of the second true leaf) is planted in a cup, and the diluted solutions are sprayed into the seedling at a ratio of 10 mL/seedling. Thereafter, the second true leaf is cut, and the cut leaf was placed in the cup, and approximately twenty (20) of larvae of western flower thrips (Frankliniella occidentalis) larvae are released onto the leaf. After 6 days, the number of the surviving insects is examined and the mortality of insects is calculated by the following equation.

[5] = test system: northern house mosquitos (Culex pipiens pipiens); experiment: Test method 8: coated container contact test, northern house mosquito female adults; type: in vivo; settings: 24 h, read-out: mortality of insects
Procedure: The test compounds are dissolved with acetone containing a surfactant, and the solution was then poured into a container of 20 mL contents, and the solution was coating uniformly in the inner face of the container such that the test compound is made 10 mg/m^2, and the surfactant is made 40 mg/m^2, and the container is dried.
Five (5) of female adult of northern house mosquitos (Culex pipiens pipiens) are placed in the contained, and the contained is put the lid. After the passing of the prescribed times, the state of the northern house mosquitos are examined, and the mortality is calculated by the following equation.

[6] = test system: brown planthoppers (Nilaparvata lugens); experiment: Test method 4: foliar spray on rice seedling, brown planthopper larvae; type: in vivo; settings: 144 h, read-out: mortality of insects
Procedure: as §1
Rice (Oryza sativa) seedling (on the developmental stage of the second true leaf) is planted in a cup, and the diluted solutions are sprayed into the seedling at a ratio of 10 mL/seedling. Thereafter, twenty (20) of 3rd instar larvae of brown planthoppers (Nilaparvata lugens) are released onto the rice leaves. After 6 days, the number of the surviving insects is examined and the mortality of insects is calculated by the following equation.

[7] = test system: silverleaf whiteflies (Bemisia tabaci); experiment: Test method 6: foliar spray on tomato seedling with silverleaf whitefly larvae; settings: in Solanum lycopersicum, 168 h, read-out: mortality of insects
[8] = 200 ppm, spray 20 mL/seedling on cabbage, third instar larvae, after 6 days, 25° C. (test method 2)
[9] = 200 ppm, spray 10 mL/seedling on cucumber, cut second true leaf, larvae, after 6 days, 25° C.
[10] = 10 mg/m^2 coated on inner face of container, female adults, after one (1) day, 25° C.
[11] = 200 ppm, spray 20 mL/seedling on cabbage, third instar larvae, after 6 days, 25° C.
[12] = 200 ppm, spray 10 mL/seedling on rice, 3rd instar larvae, after 6 days, 25° C.

With Cc1cc(O)c2c(c1)[C@]1(C)C[C@@]34OC(=O)C[C@@](C)([C@H]1C(=O)[C@@H]2C)[C@]3(C)CC[C@@]12C[C@@H](C)C[C@H](CN14)O2 [B-1] the mortality at 200 ppm [1] was ≥ 90%, the mortality at 200 ppm [2] was ≥ 80% and the mortality at 200 ppm [3] was ≥ 80%. For the same compound, the mortality at 200 ppm [4] was ≥ 90% and the mortality at 10 mg/m2 [5] was ≥ 80%.
In the case of C[C@@H]1CC(=O)[C@H]2CC(=O)[C@H]3[C@@](C)(C[C@@]45OC(=O)C[C@]3(C)[C@]4(C)CC[C@]34C[C@@H](C)C[C@H](CN35)O4)[C@@H]2C1 [A-18], the mortality at 200 ppm [1] is reported as ≥ 90%, the mortality at 200 ppm [2] is reported as ≥ 80% and the mortality at 200 ppm [3] is reported as ≥ 80%. For the same compound, the mortality at 200 ppm [4] was ≥ 90% and the mortality at 200 ppm [6] was ≥ 90%.
With CC1CC(=O)C2CC(=O)[C@H]3[C@@](C)(CC4=[N+]5C[C@H]6C[C@H](C)C[C@]5(CC[C@@]4(C)[C@@]3(C)CC(=O)O)O6)C2C1 (stereo partly drawn) [EE-2] the mortality at 200 ppm [7] was ≥ 90%, the mortality at 200 ppm [1] was ≥ 90% and the mortality at 200 ppm [2] was ≥ 80%. The mortality at 200 ppm [3] was ≥ 80%, the mortality at 200 ppm [4] was ≥ 90% and the mortality at 10 mg/m2 [5] was ≥ 80%. The mortality at 200 ppm [6] was ≥ 90%.
For CC1=CC(=O)[C@@H]2[C@@H](C1)[C@]1(C)C[C@@]34OC(=O)C[C@@](C)([C@H]1C(=O)[C@@H]2CO)[C@]3(C)CCC12C[C@@H](C)C[C@H](CN14)O2 [A-1], the mortality at 200 ppm [7] was ≥ 90%, the mortality at 200 ppm [1] was ≥ 90% and the mortality at 200 ppm [2] was ≥ 80%. The mortality at 200 ppm [3] was ≥ 80% and the mortality at 200 ppm [6] was ≥ 90%.
With COC(=O)C[C@@]1(C)[C@H]2C(=O)[C@H](C)[C@@H]3C(=O)C=C(C)C[C@H]3[C@]2(C)C[C@H]2N3C[C@H]4C[C@H](C)C[C@]3(CC[C@]21C)O4 [EE-5] the mortality at 200 ppm [1] was ≥ 90%, the mortality at 200 ppm [2] was ≥ 80% and the mortality at 200 ppm [3] was ≥ 80%. The mortality at 200 ppm [4] was ≥ 90%, the mortality at 10 mg/m2 [5] was ≥ 80% and the mortality at 200 ppm [6] was ≥ 90%.
COC(=O)C[C@@]1(C)[C@H]2C(=O)C[C@@H]3C(=O)CC(C)C[C@H]3[C@]2(C)CC2N3C[C@H](O)C[C@H](C)CC3CC[C@]21C (stereo partly drawn) [GG-2] was tested, and the mortality at 10 mg/m2 [5] was ≥ 80%.
For CC1CC(O)C2CC(=O)[C@H]3[C@@](C)(CC4N5C[C@H]6C[C@H](C)C[C@]5(CC[C@@]4(C)[C@@]3(C)CC(=O)O)O6)C2C1 (stereo partly drawn) [EE-6], the mortality at 200 ppm [2, 8] was ≥ 80%, the mortality at 200 ppm [4, 9] was ≥ 90% and the mortality at 10 mg/m2 [5, 10] was ≥ 80%.
For COC(=O)C[C@@]1(C)[C@H]2C(=O)C[C@@H]3C(=O)C=C(C)C[C@H]3[C@]2(C)C=C2N3C[C@H]4C[C@H](C)C[C@]3(CC[C@]21C)O4 [E-1], the mortality at 200 ppm [7] was ≥ 90%, the mortality at 200 ppm [1] was ≥ 90% and the mortality at 200 ppm [2] was ≥ 80%. For the same compound, the mortality at 200 ppm [4] was ≥ 90%, the mortality at 10 mg/m2 [5] was ≥ 80% and the mortality at 200 ppm [6] was ≥ 90%.
For CC1=CC(=O)[C@@H]2[C@@H](C1)[C@]1(C)C[C@H]3N4C[C@H]5C[C@H](C)C[C@]4(CC[C@@]3(C)[C@@](C)(CC(=O)O)[C@H]1C(=O)[C@@H]2C)O5 [EE-3], the mortality at 200 ppm [1] was ≥ 90%, the mortality at 200 ppm [3, 11] was ≥ 80% and the mortality at 200 ppm [4, 9] was ≥ 90%. The mortality at 10 mg/m2 [5, 10] was ≥ 80% and the mortality at 200 ppm [6, 12] was ≥ 90%.
With CC(=O)Oc1cc(C)cc2c1CC(=O)[C@H]1[C@@]2(C)C[C@@]23OC(=O)C[C@]1(C)[C@]2(C)CC[C@]12C[C@@H](C)C[C@H](CN13)O2 [BB-1] the mortality at 200 ppm [1] was ≥ 90%, the mortality at 200 ppm [2, 8] was ≥ 80% and the mortality at 200 ppm [3, 11] was ≥ 80%. The mortality at 200 ppm [4, 9] was ≥ 90% and the mortality at 10 mg/m2 [5, 10] was ≥ 80%.
For Cc1cc(O)c2c(c1)[C@]1(C)C[C@@]34OC(=O)C[C@@](C)([C@H]1C(=O)C2)[C@]3(C)CC[C@]12C[C@@H](C)C[C@H](CN14)O2 [B-2], the mortality at 200 ppm [1] was ≥ 90%, the mortality at 200 ppm [2] was ≥ 80% and the mortality at 200 ppm [3] was ≥ 80%. For the same compound, the mortality at 10 mg/m2 [5] was ≥ 80% and the mortality at 200 ppm [6] was ≥ 90%.
In the case of CC1=CC(=O)[C@@H]2[C@@H](C1)[C@@]1(C)[C@H](C(=O)[C@@H]2C)[C@]2(C)CC(=O)O[C@@]3([C@H]1Cl)N1C[C@H]4C[C@H](C)C[C@]1(CC[C@@]23C)O4 [AA-2], the mortality at 200 ppm [7] is reported as ≥ 90%, the mortality at 200 ppm [1] is reported as ≥ 90% and the mortality at 200 ppm [2] is reported as ≥ 80%. The mortality at 200 ppm [3] was ≥ 80%, the mortality at 200 ppm [4] was ≥ 90% and the mortality at 10 mg/m2 [5] was ≥ 80%. The mortality at 200 ppm [6] was ≥ 90%.
For CC1=CC(=O)[C@@H]2[C@@H](C1)[C@]1(C)CC3N4C[C@H](O)C[C@H](C)C[C@@H]4CC[C@@]3(C)[C@@](C)(CC(=O)O)[C@H]1C(=O)[C@@H]2C (stereo partly drawn) [GG-3], the mortality at 200 ppm [1] was ≥ 90%, the mortality at 200 ppm [3] was ≥ 80% and the mortality at 200 ppm [4] was ≥ 90%. The mortality at 10 mg/m2 [5] was ≥ 80% and the mortality at 200 ppm [6] was ≥ 90%.
COC(=O)C[C@@]1(C)[C@H]2C(=O)[C@H](C)[C@@H]3C(=O)C=C(C)C[C@H]3[C@]2(C)C=C2N3C[C@H]4C[C@H](C)C[C@]3(CC[C@]21C)O4 [EE-4] was tested, and the mortality at 200 ppm [2, 8] was ≥ 80%, the mortality at 200 ppm [4, 9] was ≥ 90% and the mortality at 10 mg/m2 [5, 10] was ≥ 80%. The mortality at 200 ppm [6, 12] was ≥ 90%.
COC(=O)C[C@@]1(C)[C@H]2C(=O)CC3C(=O)CC(C)CC3[C@]2(C)C=C2N3C[C@H]4C[C@H](C)C[C@]3(CC[C@]21C)O4 (stereo partly drawn) [EE-1] was tested, and the mortality at 200 ppm [7] was ≥ 90%, the mortality at 200 ppm [1] was ≥ 90% and the mortality at 200 ppm [4, 9] was ≥ 90%. The mortality at 10 mg/m2 [5, 10] was ≥ 80%.
For CC1CC(O)[C@H]2CC(=O)[C@H]3[C@@](C)(CC4N5C[C@H](O)C[C@H](C)CC5CC[C@@]4(C)[C@@]3(C)CC(=O)O)[C@@H]2C1 (stereo partly drawn) [GG-1], the mortality at 10 mg/m2 [5] was ≥ 80% and the mortality at 200 ppm [6] was ≥ 90%.
CC[C@H]1C(=O)[C@H]2[C@@](C)(C[C@@]34OC(=O)C[C@]2(C)[C@]3(C)CC[C@]23C[C@@H](C)C[C@H](CN24)O3)[C@@H]2CC(C)=CC(=O)[C@H]21 [AA-3] was tested, and the mortality at 200 ppm [7] was ≥ 90%, the mortality at 200 ppm [1] was ≥ 90% and the mortality at 200 ppm [2] was ≥ 80%. The mortality at 200 ppm [3] was ≥ 80%, the mortality at 10 mg/m2 [5] was ≥ 80% and the mortality at 200 ppm [6] was ≥ 90%.
In the case of CC1CC(=O)[C@@H]2[C@@H](C1)[C@]1(C)C[C@@]34OC(=O)C[C@@](C)([C@H]1C(=O)[C@@H]2C)[C@]3(C)CC[C@]12C[C@@H](C)C[C@H](CN14)O2 (stereo partly drawn) [A-19], the mortality at 200 ppm [1] is reported as ≥ 90%, the mortality at 200 ppm [2] is reported as ≥ 80% and the mortality at 200 ppm [3] is reported as ≥ 80%. For the same compound, the mortality at 200 ppm [4] was ≥ 90%, the mortality at 10 mg/m2 [5] was ≥ 80% and the mortality at 200 ppm [6] was ≥ 90%.
